The term IC50 denotes the concentration needed to halve the response being measured. Broadly, the EC50 is the concentration at which the effect is half-maximal.

Structures are written as SMILES. Some results are limits rather than exact numbers.

For one data set, the system named is A375 cells. The data set is described as follows: Melanoma cell viability, 48 hours treatment, A375. It counts as cell-based, human. To be noted: for effect on cell viability: A375; for IC50: Homo sapiens, A-375, A375, 48 hours, read-out: IC50, reduction in cell viability. The protocol:
(§1) The electrophysiology whole-cell patch clamp experiments occur within a minute. […] To determine their effect on melanoma cell survival, A375 and B16F10 were treated with QH-II-066, KRM-II-08, or diazepam for 48 hours.

Another data set relates to B16F10 cells. The data set is described as follows: Melanoma cell viability, 48 hours treatment, B16F10. To be noted: for effect on cell viability: B16F10; for IC50: Mus musculus, B16-F10, B16F10, 48 hours, read-out: IC50, reduction in cell viability. In kind it is cell-based, murine. How it is done:
as §1

The test system of data set [1] is medulloblastoma cancer cells. To be noted: sustained incubation; cited from earlier work.
The subject of data set [2] is GABAAR. The data set is described as follows: Whole-cell patch clamp electrophysiology in B16F10 melanoma cells. It counts as cell-based, murine. To be noted: for EC50: read-out: EC50, enhancement of the effect of GABA, [GABA]=1 μM, benzodiazepine 0-10 μM. How it is done:
(§2) GABAAR is an anion (Cl—) channel that changes the transmembrane potential of cells, either depolarizing or hyperpolarizing depending upon channel directionality and activity of other membrane transport protein. To establish autonomous expression of GABAAR subunits in melanoma cell lines results in assembly of a functional ligand-dependent channel, electrophysiological testing was performed in human melanoma (A375) and murine (B16F10) lines. Patch clamp currents were recorded for A375 and B16F10. […] A fully functional benzodiazepine binding site requires assembly of a GABAAR with a canonical αβαβγ subunit stoichiometry.
(§3) Two benzodiazepines were tested (QH-II-066 and KRM-II-08). QH-II-066 and KRM-II-08 differ in having H and F at R2′ of the benzene ring of benzodiazepine, respectively.
(Patch clamp records ionic current or voltage across a cell membrane.)

Data set [3] deals with GABAAR. In words: Whole-cell patch clamp electrophysiology in A375 melanoma cells. In kind it is cell-based, human. To be noted: for mode of action at GABAAR from electrophysiology: A375 and B16F10 cells; for EC50: read-out: EC50, enhancement of the effect of GABA, [GABA]=1 μM, benzodiazepine 0-10 μM. The protocol: as §2, §3
Data set [4] concerns CD8+ T cells in B16F10-GP tumors. The data set is described as follows: Immunophenotyping of tumor infiltrating lymphocytes of bilateral B16F10-GP tumors by flow cytometry. It counts as in vivo, C57BL/6 mice. How it is done: Mice were sacrificed and tumor infiltrating lymphocytes (TILs) were isolated, stained, and analyzed using flow cytometry. For cytokine analysis, TILs were stimulated with GP33 peptide for 6 hours in presence of GolgiStop™ and GolgiPlug™ and analyzed using flow cytometry. Tumor weight and Lymphocyte number per gram tumor.
To determine whether these apparent synergistic effects were mediated by an enhanced immune response, immunophenotyping of bilateral tumors was performed. […] (FIG. 4A-4E).
On the technique in general: Flow cytometry measures light scatter and fluorescence of single cells or particles in a stream.

In the next data set the test system is B16F10-GP tumor. In words: B16F10-GP syngeneic melanoma murine model, bilateral flank tumors, tumor volume. In kind it is in vivo, C57BL/6 mice. How it is done:
The clinical observation of improved outcome for RT-ICI was analyzed using a murine model. B16F10-GP cells (0.5×10^5) were implanted in both right and left flanks of C57BL/6 mice (FIG. 1A). A single dose of radiation at 10 Gy was delivered to the right flank only using a 0.5 cm bolus material, on Day 10 after implanting the melanoma cells. Day 10 was chosen to allow for growth of tumor cells in flanks to the point where they became palpable. […] Anti-PD-L1 was given by intraperitoneal injection every third day.
Since melanoma cell viability in vitro was impaired by benzodiazepines QH-II-066 and KRM-II-08, experiments were performed to determine if benzodiazepine had anti-tumor activity in vivo. […] Given that immune checkpoint inhibitor efficacy is enhanced by radiation therapy, experiments were performed to determine whether RT combined with QH-II-066 synergize to control ipsilateral and abscopal tumor volume using the B16F10-GP syngeneic melanoma murine model. B16F10-GP melanoma cells were implanted (0.5×10^5) in both right and left flanks of C57BL/6 mice (FIG. 3B). A single dose of radiation (either 10 or 5 Gy) was delivered to the right flank on Day 10 after implanting of B16F10-GP cells. […] There was no difference when using different radiation doses (10 or 5 Gy).
Having observed that QH-II-066 could sensitize a melanoma tumor to radiation and that expression of genes with roles in the cytokine:cytokine receptor interaction pathway was enhanced, experiments were performed to determine if QH-II-066 was capable of potentiating the programmed death ligand 1 immune checkpoint inhibitor (anti-PD-L1). B16F10-GP melanoma cells were implanted in both the right and left flanks of C57BL/6 mice. Day 10 in both the right and left flanks injected i.p.: (i) QH-II-066 (10 mg/kg), then every day for seven days; (ii) anti-PD-L1 (200 μg), then every third day thereafter; (iii) QH-II-066 (10 mg/kg) and anti-PD-L1 (200 μg) at time and frequency detailed for monotherapy treatment groups (FIG. 5).
Having observed potentiation of radiation and anti-PD-L1 by QH-II-066 individually, there might be a more significant tumor response if we administered a ‘combo’ consisting of radiation (5 Gy), anti-PD-L1, plus QH-II-066. As before, B16F10-GP melanoma cells were implanted in both the right and left flanks of C57BL/6 mice (FIG. 5). The following experimental groups were tested: (i) vehicle alone control; (ii) QH-II-066 alone (10 mg/kg); (iii) a single morning dose of radiation (5 Gy) delivered to the right flank, followed by evening dose of QH-II-066 (10 mg/kg); (iv) anti-PD-L1 plus QH-II-066; (v) a single morning dose of radiation (5 Gy) delivered to the right flank, followed by an evening dose of anti-PD-L1; (vi) a triple or combo therapy, consisting of a single morning dose of radiation (5 Gy) delivered to the right flank, followed by evening doses of anti-PD-L1 plus QH-II-066. After initial i.p. injection of QH-II-066 on Day 10, QH-II-066 was injected i.p. every day for seven days; while anti-PD-L1 was injected i.p. every third day thereafter.
B16F10-GP cell line was grown in Dulbecco's Modified Eagle's medium (DMEM) supplemented with 10% Fetal Bovine Serum, 100 U/mL penicillin and 100 μg/mL streptomycin, 2 mM glutamine. Cells were cultured at 37° C. with 5% CO2.
B16F10-GP melanoma cells ([…]) were implanted in matrigel (25%) on right and left flank of 6-8 week old female C57BL/6 mice (Jackson Laboratories, Bar Harbor, Me.). […]

Another data set concerns A375 and B16F10 cells. The data set is described as follows: p53 expression and mitochondrial transmembrane potential in melanoma cells. It counts as cell-based, human and murine. The protocol: Changes induced by the benzodiazepine as a consequence of creating a net efflux of chloride anion, included an upregulation of TP53 and a depolarization of the mitochondrial transmembrane potential, ultimately resulting in apoptosis via the intrinsic mitochondria-mediated pathway. Thus, Experiments were performed to determine if benzodiazepine elicited a similar response in A375 and B16F10 cells.

The conditions of data set [5]: non-human primates, previously tested; cited from earlier work.

Turning to `CN1C(=O)CN=C(c2ccccc2)c2cc(Cl)ccc21` [diazepam, reference compound], the “effect on cell viability” value in the data set with A375 cells and in the data set with B16F10 cells was “no effect” throughout.
For `C#Cc1ccc2c(c1)C(c1ccccc1F)=NCC(=O)N2C` [KRM-II-08, 7-ethynyl-5-(2-fluorophenyl)-1-methyl-1,3-dihydro-2H-benzo[e][1,4]diazepin-2-one], in data set [1], the “effectiveness in impairing cell viability versus diazepam” value is listed as “more than an order of magnitude improved effectiveness”. The IC50 in the data set with A375 cells stood at 1.33 ± 0.08 µM; with B16F10 cells it was 6.1 ± 0.8 µM. Moreover, the EC50 is 0.2 ± 0.1 µM in the data set on GABAAR [2] and 1.7 ± 0.2 µM in the data set on GABAAR [3] (A375 cells). Further, in the data set on GABAAR [3], the “mode of action at GABAAR from electrophysiology” value is reported as “GABAAR positive allosteric modulators”.
For the molecule `CC(=O)[C@H]1CC[C@H]2[C@@H]3CC[C@H]4C[C@H](O)CC[C@]4(C)[C@H]3CC[C@]12C` [Allopregnanolone, allopregnanolone, reference compound], the “effect on cell viability” value in the data set with A375 cells and with B16F10 cells was “does not impair” in each case.
With `C#Cc1ccc2c(c1)C(c1ccccc1)=NCC(=O)N2C` [QH-II-066, 7-ethynyl-1-methyl-5-phenyl-1,3-dihydro-2H-benzo[e][1,4]diazepin-2-one], the “CD8+ T cell infiltration of ipsilateral tumor, radiation in combination with QH-II-066” value in data set [4] (10 or 5 Gy plus QH-II-066, compared to vehicle) is reported as “enhanced infiltration of CD8+ T cells”. Moreover, in data set [4] (QH-II-066 10 mg/kg alone, compared to vehicle), the “CD8+ T cell infiltration of tumor, QH-II-066 alone” value was “did not induce CD8+ T cell infiltration”. In addition, the “antigen-specific, poly-functional T cells (expressing IFN-γ and TNF-α) in ipsilateral and contralateral tumors” value in [4] (ipsilateral radiation therapy + systemic QH-II-066) is on record as “significant increase”. Also, the “effectiveness in impairing cell viability versus diazepam” value in [1] is listed as “more than an order of magnitude improved effectiveness”. In the data set on B16F10-GP tumor (5 Gy right flank Day 10, then anti-PD-L1 200 μg every third day plus QH-II-066 10 mg/kg daily 7 days), the “ipsilateral and abscopal tumor effect, combo of radiation, anti-PD-L1 and QH-II-066” value was “complete tumor regression in some animals”. Moreover, the “B16F10-GP tumor growth, monotherapy dose response” value in the data set on B16F10-GP tumor (10, 25 and 50 mg/kg i.p. daily for a week, negligible difference between 25 and 50 mg/kg) was “dose-dependent reduction”. Moreover, in the data set on B16F10-GP tumor (10 or 5 Gy right flank Day 10, then QH-II-066 10 mg/kg daily 7 days), the “anti-tumor effect on ipsilateral and contralateral tumor, combination with radiation therapy” value is listed as “strongly synergistic anti-tumor effect”. The “tumor volume, dual therapy QH-II-066 and anti-PD-L1” value in the data set with B16F10-GP tumor (QH-II-066 10 mg/kg daily 7 days plus anti-PD-L1 200 μg every third day) is recorded as “most significant reduction in tumor volume”. In the data set with B16F10-GP tumor (QH-II-066 10 mg/kg i.p. daily 7 days or anti-PD-L1 200 μg i.p. every third day, from Day 10), the “tumor volume, monotherapy” value is given as “comparable reductions in tumor volume”. In addition, the IC50 was found to be 2.7 ± 0.2 µM with A375 cells and 8.2 ± 0.9 µM in the data set on B16F10 cells. Moreover, in the data set with A375 and B16F10 cells, the “expression of p53” value is reported as “enhanced expression of p53”. Besides, in the data set with A375 and B16F10 cells, the “time to depolarization of the mitochondrial transmembrane potential” value was ≤ 10 min. The results for the EC50 in the data set on GABAAR [2] and in the data set on GABAAR [3] (A375 cells) were 0.16 ± 0.09 µM and 0.9 ± 0.4 µM, respectively. In the data set with GABAAR [3], the “mode of action at GABAAR from electrophysiology” value is “GABAAR positive allosteric modulators”. In addition, the “adverse side effects or toxicity” value in [5] is “without any adverse side effects or toxicity”.
Take `NCCCC(=O)O` [GABA, gamma-aminobutyric acid, reference compound]: the “maximal response to GABA (current)” value was −430±70 pA in the data set on GABAAR [2] (patch clamp, n=6) and −230±41 pA in the data set on GABAAR [3] (A375 cells, patch clamp, n=8).

Source of the values: patent US20220079952A1, “Uses of Radiation and Benzodiazepine Derivatives in Cancer Therapies” (Emory University, priority 2019, published 2022).
